Experimental data: patent US12649751B2 (Arcus Biosciences, Inc., priority 2022, dated 2026)
Where two headings read alike, the source gives them in different places.

Legend:
HPK1 = HPK1 (Homo sapiens, UniProt Q92918); assay: HPK1 Biochemical Assay (ADP-Glo luminescence; low ATP 10 μM or high ATP 200 μM)
[1] = system: p-SLP-76 (Ser376) in Jurkat cells; assay: pSLP76 Cellular Assay (AlphaLISA SureFire Ultra p-SLP-76 (Ser376), anti-CD3 activated Jurkat cells); assay type: cell-based; conditions: read-out: Cellular Potency
In short: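 Read-out is AlphaLISA p-SLP-76 (Ser376) signal at 570 nm in Jurkat lysates, with IC50 fitted by 4-parameter logistic. Cells were starved overnight, exposed 1 h at 37 °C to 22 twofold compound dilutions in HBSS, then activated 45 min with anti-CD3 (0.025 mg/ml stock added).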

[2] = HPK1 ADP-Glo assay, high ATP (200 μM ATP, 5 nM HPK1), read-out: Biochemical Potency (high ATP)
[3] = Homo sapiens, pSLP76 (Ser376) AlphaLISA, anti-CD3 activated Jurkat cells
[4] = 2 nM HPK1, 10 μM ATP, read-out: Biochemical Potency (low ATP)
[5] = Homo sapiens, Jurkat cells, anti-CD3 stimulation, pSLP76
[6] = HPK1 ADP-Glo assay, low ATP (10 μM ATP, 2 nM HPK1), read-out: Biochemical Potency (low ATP)

Sequence of HPK1 (Q92918 whole entry, species assumed): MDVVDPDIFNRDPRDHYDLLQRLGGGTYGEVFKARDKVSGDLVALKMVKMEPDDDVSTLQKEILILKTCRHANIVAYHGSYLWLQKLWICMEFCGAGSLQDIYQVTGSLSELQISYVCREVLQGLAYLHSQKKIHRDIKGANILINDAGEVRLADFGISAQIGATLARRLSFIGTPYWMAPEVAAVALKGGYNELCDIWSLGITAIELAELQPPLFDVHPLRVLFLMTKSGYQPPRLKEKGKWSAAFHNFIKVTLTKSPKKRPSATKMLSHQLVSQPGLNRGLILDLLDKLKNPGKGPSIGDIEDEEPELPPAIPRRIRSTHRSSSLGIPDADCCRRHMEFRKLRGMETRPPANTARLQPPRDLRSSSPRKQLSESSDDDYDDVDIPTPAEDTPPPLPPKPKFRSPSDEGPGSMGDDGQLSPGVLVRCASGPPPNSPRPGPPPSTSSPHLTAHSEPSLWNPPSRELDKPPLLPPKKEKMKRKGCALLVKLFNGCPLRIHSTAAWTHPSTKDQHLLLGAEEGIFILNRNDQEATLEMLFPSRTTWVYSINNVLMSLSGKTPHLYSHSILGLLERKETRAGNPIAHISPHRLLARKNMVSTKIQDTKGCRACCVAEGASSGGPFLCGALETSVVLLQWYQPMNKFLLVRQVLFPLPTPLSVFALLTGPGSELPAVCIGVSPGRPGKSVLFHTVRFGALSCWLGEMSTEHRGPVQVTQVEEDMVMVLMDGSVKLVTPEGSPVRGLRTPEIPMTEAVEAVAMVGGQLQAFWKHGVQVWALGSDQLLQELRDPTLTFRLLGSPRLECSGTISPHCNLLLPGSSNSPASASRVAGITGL

With Cc1cc(Nc2cc3nc(-c4cccc(C(=O)N(C)CC5CC5)c4)sc3cn2)nc(N2C[C@@H]3C[C@H]2CN3CCO)n1 [Example 558] the IC50 (HPK1; [2]) was less than 100 nM and the IC50 [1, 3] was less than 100 nM.

With CCC(O)(CC)c1cc(-c2nc3cc(Nc4cc(C)nc(N5C[C@@H]6C[C@H]5CN6C)n4)ncc3s2)ccn1 [Example 387] the IC50 (HPK1; [2]) was less than 100 nM and the IC50 [1, 3] was 100 to 1000 nM.

Cc1cc(Nc2cc3nc(-c4cccc(C(=O)N5CCOCC5)c4)sc3cn2)nc(N2C[C@@H]3C[C@H]2CN3CCO)n1 [Example 565] showed an IC50 (HPK1; [2]) of less than 100 nM and an IC50 [1, 3] of 100 to 1000 nM.

Compound Cc1ccc(Nc2cc3nc(-c4cnn(CCC(N)=O)c4)sc3cn2)nc1CN1CCCC1 [Example 37, 3-{4-[6-({5-Methyl-6-[(pyrrolidin-1-yl)methyl]pyridin-2-yl}amino)-[1,3]thiazolo[5,4-c]pyridin-2-yl]-1H-pyrazol-1-yl}propanamide] has an IC50 (HPK1; [4]) of less than 100 nM and an IC50 [1, 5] of 100 to 1000 nM.

Work on COCCN(C)C(=O)c1cccc(-c2nc3cc(Nc4cc(C)nc(N5C[C@@H]6C[C@H]5CN6C)n4)ncc3s2)c1 [Example 566] yielded an IC50 (HPK1; [2]) of less than 100 nM and an IC50 [1, 3] of 100 to 1000 nM.

Cc1cc(Nc2cc3nc(-c4ncccc4C)sc3cn2)nc(N2C[C@@H]3C[C@H]2CN3C)n1 [Example 160, 6-Methyl-2-[(1S,4S)-5-methyl-2,5-diazabicyclo[2.2.1]heptan-2-yl]-N-[2-(3-methylpyridin-2-yl)-[1,3]thiazolo[5,4-c]pyridin-6-yl]pyrimidin-4-amine] gave an IC50 (HPK1; [4]) of less than 100 nM and an IC50 [1, 5] of less than 100 nM.

Cc1cc(-c2nc3cc(Nc4cccc(N5CCNCC5)n4)ncc3s2)ccn1 [Example 85, N-[2-(2-Methylpyridin-4-yl)-[1,3]thiazolo[5,4-c]pyridin-6-yl]-6-(piperazin-1-yl)pyridin-2-amine] showed an IC50 (HPK1; [4]) of less than 100 nM and an IC50 [1, 5] of 1000 to 5000 nM.

CCN1C[C@@H]2C[C@H]1CN2c1nc(C)cc(Nc2cc3nc(-c4cncc(N5CCOC[C@H]5C)c4)sc3cn2)n1 [Example 297, 2-[(1S,4S)-5-ethyl-2,5-diazabicyclo[2.2.1]heptan-2-yl]-6-methyl-N-(2-{5-[(3R)-3-methylmorpholin-4-yl]pyridin-3-yl}-[1,3]thiazolo[5,4-c]pyridin-6-yl)pyrimidin-4-amine] gave an IC50 (HPK1; [2]) of less than 100 nM and an IC50 [1, 3] of 100 to 1000 nM.

c1cncc(-c2nc3cc(Nc4ccc([C@@H]5CCOC5)c(CN5CCCC5)n4)ncc3s2)c1 (single isomer, unassigned) [Example 261, 5-[(3R or 3S)—Oxolan-3-yl]-N-[2-(pyridin-3-yl)-[1,3]thiazolo[5,4-c]pyridin-6-yl]-6-[(pyrrolidin-1-yl)methyl]pyridin-2-amine] showed an IC50 (HPK1; [4]) of less than 100 nM and an IC50 [1, 5] of 100 to 1000 nM.

CCN1C[C@@H]2C[C@H]1CN2c1nc(C)cc(Nc2cc3nc(-c4cccc(C(=O)N[C@@H](C)C5CC5)c4)sc3cn2)n1 [Example 525] showed an IC50 (HPK1; [2]) of less than 100 nM and an IC50 [1, 3] of less than 100 nM.

Cc1cccnc1-c1nc2cc(Nc3ccc([C@@H]4CCOC4)c(CN4CCCC4)n3)ncc2s1 (single isomer, unassigned) [Example 259, N-[2-(3-Methylpyridin-2-yl)-[1,3]thiazolo[5,4-c]pyridin-6-yl]-5-[(3R or 3S)-oxolan-3-yl]-6-[(pyrrolidin-1-yl)methyl]pyridin-2-amine] gave an IC50 (HPK1; [4]) of less than 100 nM and an IC50 [1, 5] of 100 to 1000 nM.

Cc1cc(Nc2cc3nc(-c4cnn(C5CC5)c4)sc3cn2)nc(N2C[C@@H]3C[C@H]2CN3CC2CC2)n1 [Example 364] showed an IC50 (HPK1; [2]) of less than 100 nM and an IC50 [1, 3] of less than 100 nM.

CN1C[C@@H]2C[C@H]1CN2c1nccc(Nc2cc3nc(-c4cccc(NS(C)(=O)=O)c4)sc3cn2)n1 [Example 413] gave an IC50 (HPK1; [2]) of less than 100 nM, an IC50 (HPK1; [6]) of less than 100 nM and an IC50 [1, 3] of 1000 to 5000 nM.

Cc1cccnc1-c1nc2cc(Nc3ccc4c(n3)[C@](C)(N)CC4)ncc2s1 [Example 577] gave an IC50 (HPK1; [6]) of less than 100 nM and an IC50 [1, 3] of 1000 to 5000 nM.

Work on Cc1ccnn1-c1nc2cc(Nc3ccc(N4CCC(F)(F)C4)c(C(C)(C)N)n3)ncc2s1 [Example 273, 6-(2-Aminopropan-2-yl)-5-(3,3-difluoropyrrolidin-1-yl)-N-[2-(5-methyl-1H-pyrazol-1-yl)-[1,3]thiazolo[5,4-c]pyridin-6-yl]pyridin-2-amine] yielded an IC50 (HPK1; [4]) of less than 100 nM and an IC50 [1, 5] of 100 to 1000 nM.

CN1C[C@@H]2C[C@H]1CN2c1cccc(Nc2cc3nc(-c4nccn4C)sc3cn2)n1 [Example 108, N-[2-(1-Methyl-1H-imidazol-2-yl)-[1,3]thiazolo[5,4-c]pyridin-6-yl]-6-[(1S,4S)-5-methyl-2,5-diazabicyclo[2.2.1]heptan-2-yl]pyridin-2-amine] gave an IC50 (HPK1; [4]) of less than 100 nM and an IC50 [1, 5] of less than 100 nM.

Cc1ccc(Nc2cc3nc(-c4ncccc4C)sc3cn2)nc1CN1CC[C@@H](C#N)C1 [Example 54, 6 (3R)-1-[(3-Methyl-6-{[2-(3-methylpyridin-2-yl)-[1,3]thiazolo[5,4-c]pyridin-6-yl]amino}pyridin-2-yl)methyl]pyrrolidine-3-carbonitrile] showed an IC50 (HPK1; [4]) of less than 100 nM and an IC50 [1, 5] greater than 5000 nM.

In the case of Cc1cccnc1-c1nc2cc(Nc3nc(N4C[C@@H]5C[C@H]4CN5C)ccc3F)ncc2s1 [Example 109, 3-Fluoro-6-[(1S,4S)-5-methyl-2,5-diazabicyclo[2.2.1]heptan-2-yl]-N-[2-(3-methylpyridin-2-yl)-[1,3]thiazolo[5,4-c]pyridin-6-yl]pyridin-2-amine], the IC50 (HPK1; [4]) is reported as less than 100 nM and the IC50 [1, 5] is reported as 1000 to 5000 nM.

For COc1cccc(F)c1-c1nc2cc(Nc3cccc(N4C[C@@H]5C[C@H]4CN5C)n3)ncc2s1 [Example 80, N-[2-(2-Fluoro-6-methoxyphenyl)-[1,3]thiazolo[5,4-c]pyridin-6-yl]-6-[(1S,4S)-5-methyl-2,5-diazabicyclo[2.2.1]heptan-2-yl]pyridin-2-amine], the IC50 (HPK1; [4]) was less than 100 nM and the IC50 [1, 5] was 100 to 1000 nM.

Compound Cc1cccnc1-c1nc2cc(Nc3cccc(C4CCN(C)CC4)n3)ncc2s1 [Example 115, 6-(1-Methylpiperidin-4-yl)-N-[2-(3-methylpyridin-2-yl)-[1,3]thiazolo[5,4-c]pyridin-6-yl]pyridin-2-amine] has an IC50 (HPK1; [4]) of less than 100 nM and an IC50 [1, 5] greater than 5000 nM.

Compound CC(=O)N1CCCc2c(-c3nc4cc(Nc5cc(C)nc(N6C[C@@H]7C[C@H]6CN7C)n5)ncc4s3)cccc21 [Example 573] has an IC50 (HPK1; [2]) of 100 to 1000 nM and an IC50 [1, 3] of 1000 to 5000 nM.

In the case of Cc1cc(Nc2cc3nc(-c4cccc(C(=O)N(C)C)c4)sc3cn2)nc(N2C[C@@H]3C[C@H]2CN3Cc2ccccn2)n1 [Example 493], the IC50 (HPK1; [2]) is reported as less than 100 nM and the IC50 [1, 3] is reported as 100 to 1000 nM.

OCCN1C[C@@H]2C[C@H]1CN2c1nccc(Nc2cc3nc(-c4cnn(CC5CC5)c4)sc3cn2)n1 [Example 357] was tested, and the IC50 (HPK1; [2]) was less than 100 nM and the IC50 [1, 3] was 100 to 1000 nM.

CN(C)Cc1cc(N2CCOCC2)cc(Nc2cc3nc(-c4c(F)cccc4F)sc3cn2)n1 [Example 275, N-[2-(2,6-Difluorophenyl)-[1,3]thiazolo[5,4-c]pyridin-6-yl]-6-[(dimethylamino)methyl]-4-(morpholin-4-yl)pyridin-2-amine] showed an IC50 (HPK1; [4]) of less than 100 nM and an IC50 [1, 5] greater than 5000 nM.

Compound Cc1cccnc1-c1nc2cc(Nc3nc(N4C[C@@H]5C[C@H]4CN5)ccc3F)ncc2s1 [Example 320] has an IC50 (HPK1; [2]) of less than 100 nM, an IC50 (HPK1; [6]) of less than 100 nM and an IC50 [1, 3] of 100 to 1000 nM.

c1cnn(-c2nc3cc(Nc4ccc(C5CCOCC5)c(CN5CCCC5)n4)ncc3s2)c1 [Example 210, 5-(Oxan-4-yl)-N-[2-(1H-pyrazol-1-yl)-[1,3]thiazolo[5,4-c]pyridin-6-yl]-6-[(pyrrolidin-1-yl)methyl]pyridin-2-amine] showed an IC50 (HPK1; [4]) of less than 100 nM and an IC50 [1, 5] of 100 to 1000 nM.

Fc1cccc(F)c1-c1nc2cc(Nc3ccc4c(c3)CC[C@@H](N3C5COCC3C5)CC4)ncc2s1 [Example 329] was tested, and the IC50 (HPK1; [6]) was 100 to 1000 nM and the IC50 [1, 3] was 5000 to 25000 nM.

With CN1C[C@@H]2C[C@H]1CN2c1nccc(Nc2cc3nc(-c4cccc(NS(C)(=O)=O)c4)sc3cn2)n1 [Example 286, N-{3-[6-({2-[(1S,4S)-5-methyl-2,5-diazabicyclo[2.2.1]heptan-2-yl]pyrimidin-4-yl}amino)-[1,3]thiazolo[5,4-c]pyridin-2-yl]phenyl}methanesulfonamide] the IC50 (HPK1; [4]) was less than 100 nM, the IC50 (HPK1; 5 nM HPK1, 200 μM ATP, read-out: Biochemical Potency (high ATP)) was less than 100 nM and the IC50 [1, 5] was 1000 to 5000 nM.

For CN1C[C@@H]2C[C@H]1CN2c1nccc(Nc2cc3nc(-c4ccnc(N5CCOCC5)c4)sc3cn2)n1 [Example 460], the IC50 (HPK1; [6]) was less than 100 nM and the IC50 ([1]; pSLP76 (Ser376) AlphaLISA, anti-CD3 activated Jurkat cells) was 100 to 1000 nM.

Cc1cccnc1-c1nc2cc(Nc3cc(C4CCC(O)CC4)nc(N4C[C@@H]5C[C@H]4CN5)n3)ncc2s1 (stereo partly drawn) [Example 302, 4-{2-[(1S,4S)-2,5-diazabicyclo[2.2.1]heptan-2-yl]-6-{[2-(3-methylpyridin-2-yl)-[1,3]thiazolo[5,4-c]pyridin-6-yl]amino}pyrimidin-4-yl}cyclohexan-1-ol] showed an IC50 (HPK1; [2]) of less than 100 nM and an IC50 [1, 3] of less than 100 nM.

For Cc1ccc(Nc2cc3nc(-c4ncccc4C)sc3cn2)nc1CN1CCC[C@H]1C [Example 44, 5-Methyl-N-[2-(3-methylpyridin-2-yl)-[1,3]thiazolo[5,4-c]pyridin-6-yl]-6-{[(2R)-2-methylpyrrolidin-1-yl]methyl}pyridin-2-amine], the IC50 (HPK1; [4]) was less than 100 nM and the IC50 [1, 5] was greater than 5000 nM.

Cc1cccnc1-c1nc2cc(Nc3ccc4c(n3)[C@H](N)CCC4)ncc2s1 [Example 317, (8R)-N2-[2-(3-methylpyridin-2-yl)-[1,3]thiazolo[5,4-c]pyridin-6-yl]-5,6,7,8-tetrahydroquinoline-2,8-diamine] gave an IC50 (HPK1; [6]) of less than 100 nM and an IC50 [1, 3] of 1000 to 5000 nM.

For Cc1cccnc1-c1nc2cc(Nc3ccc(Cl)c(CN4CCCC4)n3)ncc2s1 [Example 60], the IC50 (HPK1; [4]) was less than 100 nM and the IC50 [1, 5] was greater than 5000 nM.
